Laboratory results from patent US4873250A, “Antimicrobial compound and compositions particulary effective against candida albicans” (The University of Mississippi, priority 1988, dated 1989).
Values after ≈ are worked out from the molar mass of the structure shown.

Experiments:
[1] = tested on: Candida albicans B311; test: Minimum inhibitory concentration (MIC), twofold serial broth dilution assay, Candida albicans B311; assay type: cell-based; conditions: yeast nitrogen broth, 24 and 48 hours at 37°
Procedure: (§1) The method used to determine the minimum inhibitory concentration (MIC) of the inventive compound was a twofold serial broth dilution assay in yeast nitrogen broth. In addition to Candida albicans B311, the MIC values for onychine were also determined for two additional strains of Candida albicans: ATCC 10231 and a clinical isolate, designated WH. Also tested were Mycobacterium smegmatis 607, Bacillus subtilis, 6633, Cryptococcus neoformans 32264, Aspergillus flavus 9170, Aspergillus fumigatus 26934, and Trichophyton mentagrophytes 9972. The inventive compound was initally tested using a concentration of 100 μg/ml in the first tube. The compound was added to sterile Sabourauddextrose broth as a solution in DMSO. The inoculum for the MIC determination was prepared as described for qualitative evaluation. Using a calibrated sterile wire loop, 10μl of the 10^6 CFU/ml suspension of Candida albicans was used as inoculum for each tube. The MIC value was taken as the lowest concentration of compound that inhibited the growth of the test organisms after 24 and 48 hours of incubation at 37°. The antifungal agents amphotericin-B and ketoconazole were included as standards in each screen. The results of the MIC testing for various pathogenic agents is set out in Table I.

[2] = tested on: Candida albicans 10231; test: Minimum inhibitory concentration (MIC), twofold serial broth dilution assay, Candida albicans ATCC 10231; assay type: cell-based; conditions: ATCC10231, 24 and 48 hours at 37°
Procedure: as §1

[3] = tested on: Candida albicans WH; test: Minimum inhibitory concentration (MIC), twofold serial broth dilution assay, Candida albicans WH (clinical isolate); assay type: cell-based; conditions: 24 and 48 hours at 37°
Procedure: as §1

[4] = tested on: Candida albicans; test: Anticandidal activity, agar-well diffusion assay (zone of inhibition); assay type: cell-based; conditions: three test strains of Candida albicans; pure compounds at 1 mg/ml; 37° for 24 hours
Procedure: In vitro evaluation of the anticandidal activity of the inventive compound and compositions was carried out using the agar-well diffusion assay as follows:
Candida albicans NIH B311 used to induce experimental disseminated candidiasis was used for the initial qualitative evaluation of anticandidal activity. The organism was grown in Sabouraud-dextrose broth (SDB) for 14 hours at 37°, at which time the cells were harvested by centrifugation (4°, 2000 rpm, 3 min). After centrifugation, the cells were washed and suspended in sterile 0.9% saline to give a final concentration of 10^6 colony forming units (CFU) per ml (adjusted using a hemocytometer). Culture plates (15×100 mm) for the qualitative assay were prepared from 25 ml of Sabouraud-dextrose agar. Using sterile cotton swabs, the plates were streaked with the suspension (10^6 CFU/ml) of Candida albicans B311. Cylindrical plugs were removed from the agar plates by means of a sterile cork borer to produce wells with a diameter of approximately 11 mm. To the well was added 100 μl of solution or suspension of an extract, fraction, or pure compound. Crude extracts and fractions were tested at a concentration of 20 mg/ml, whereas pure compounds were tested at 1 mg/ml. […] Anticandidal activity was recorded as the width (in mm) of the zone of inhibition following incubation of the plates at 37° for 24 hours. […]

[5] = tested on: Candida albicans; test: In vivo disseminated Candida albicans infection in mice, CFU recovered from the kidneys; design: species or system outbred mice; conditions: for % Reduction: kidney CFU versus vehicle control; for CFU/g × 10^6 (range): kidney
Procedure: In the in vivo testing of the invention onychine, outbred mice were used. A disseminated infection of Candida albicans in the test animals was achieved by intravenous injection of 10^6 CFU of the pathogen. The organism is rapidly cleared from the blood and most tissues, except the kidney which is the primary target organ for the disseminated infection in mice. It is known than an inoculum of 10^6 CFU will produce a disseminated infection in outbred mice within […]. Onychine was administered to infected mice by intraperitoneal injection 7 hrs post-inoculation. The vehicle used for administering the compound of the invention was a mixture consisting of 50% USP water, 40% propylene glycol and 10% absolute ethonol.

[6] = under varying conditions; cited from earlier work
[7] = tested on: Candida albicans; conditions: reported in Journal of Natural Products, Vol. 50, No. 5, pp. 961-964, 1987; cited from earlier work

Cc1ccnc2c1C(=O)c1ccccc1-2 [Onychine, 1-methyl-4-azafluoren-9-one]
MIC [1]: 3.12 µg/mL (≈ 16 µM)
MIC [2]: 1.56 µg/mL (≈ 7.99 µM)
MIC [3]: 25 µg/mL (≈ 128 µM)
zone of inhibition [4]: remarkable zone of inhibition
number of CFU of Candida albicans recovered from the kidneys versus vehicle treated control mice ([5]; 0.1 mg/kg intraperitoneal 7 hrs post-inoculation): significantly lower
% Reduction ([5]; 0.1 mg/kg intraperitoneal, n=8, P 0.047): 95.5%
% Reduction ([5]; 0.5 mg/kg intraperitoneal, n=7, P 0.082): 86.7%
CFU/g × 10^6 (range) ([5]; 0.1 mg/kg intraperitoneal 7 hrs post-inoculation, n=8, range 0.05-0.3, P 0.047): 0.17 CFU/g × 10^6
CFU/g × 10^6 (range) ([5]; 0.5 mg/kg intraperitoneal 7 hrs post-inoculation, n=7, range 0.11-1.05, P 0.082): 0.50 CFU/g × 10^6

CC1C=CC=CC=CC=CC=CC=CC=CC(OC2OC(C)C(O)C(N)C2O)CC2OC(O)(CC(O)CC(O)C(O)CCC(O)CC(O)CC(=O)OC(C)C(C)C1O)CC(O)C2C(=O)O (centres unmarked) [amphotericin-B]
side effects in humans [6]: fever, anorexia, nausea and vomiting, diarrhea, muscle and joint pain, phlebitis and thiophlebitis, anemia, abnormal renal function, anuria, cardiovascular distress, hypertension and hypotension

c1ccc2c(c1)-c1nccc3ccnc-2c13 [eupolauridine]
anticandidal properties [7]: possibly remarkable anticandidal properties
